Molecular target: T1, human M4 muscarinic acetylcholine receptor (Homo sapiens, UniProt P08173)
T1 construct: expressed in transfected cells; host or cells: CHO-K1
T1 sequence (P08173 1-479): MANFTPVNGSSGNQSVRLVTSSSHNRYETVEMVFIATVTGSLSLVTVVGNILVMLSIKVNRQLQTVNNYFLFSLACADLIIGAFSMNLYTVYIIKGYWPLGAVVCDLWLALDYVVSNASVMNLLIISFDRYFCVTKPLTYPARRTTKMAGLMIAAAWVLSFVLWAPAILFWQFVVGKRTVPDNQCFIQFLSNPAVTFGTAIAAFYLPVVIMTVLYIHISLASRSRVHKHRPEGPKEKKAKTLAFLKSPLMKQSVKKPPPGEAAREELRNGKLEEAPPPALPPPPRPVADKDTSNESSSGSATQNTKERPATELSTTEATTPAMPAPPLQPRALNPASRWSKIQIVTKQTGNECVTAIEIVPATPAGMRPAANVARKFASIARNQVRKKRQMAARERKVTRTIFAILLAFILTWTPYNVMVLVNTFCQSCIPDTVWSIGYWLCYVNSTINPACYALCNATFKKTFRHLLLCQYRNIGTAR
Test: human FLIPR-based M4 PAM assay (Ca2+ mobilization, CHO-K1 cells with human M4 receptor and Gαqi5)
Assay type: cell-based
Details: acetylcholine at 20% of maximum response, read-out: M4 PAM IP
Description: In a typical experiment the M4 muscarinic acetylcholine receptor modulating activity of the compounds of the present invention was determined in accordance with the following experimental method. CHO-K1 cells stably transfected with human M4 receptor and chimeric G-protein Gαqi5 (Coward P, et al., Analytical Biochemistry, 270:242-248 (1999)) are thawed from liquid N2 storage, resuspended in growth medium, plated in black, clear bottom 384 well plates, and incubated 16-20 hours at 37° C., 5% CO2. On the day of assay, growth medium is removed, the cells are washed 2 times with wash buffer, and cells are incubated in dye loading buffer at 37° C., 5% CO2 for ˜1 hour. […] Next, 10 uL of acetylcholine is added (final concentration calculated so as to achieve 20% of the maximum acetycholine response), and the fluorescence reading is continued for 3.5 min. In some cases, a third addition of acetylcholine (final concentration calculated to achieve 70% of the maximal acetylcholine response) is performed. The resulting dose response curves are fit to a 4 parameter logistic equation and the final result is determined as the inflection point (IP) of the curve
CHO-K1 cells stably transfected with human M4 receptor and chimeric G-protein Gαqi5 are thawed from liquid N2 storage, resuspended in growth medium, plated in black, clear bottom 384 well plates, and incubated 16-20 hours at 37° C., 5% CO2.
On the day of assay, growth medium is removed, the cells are washed 2 times with wash buffer, and cells are incubated in dye loading buffer at 37° C., 5% CO2 for ˜1 h. […] Next, 10 uL of acetylcholine is added (final concentration calculated so as to achieve 20% of the maximum acetycholine response), and the fluorescence reading is continued for 3.5 min. In some cases, a third addition of acetylcholine (final concentration calculated to achieve 70% of the maximal acetylcholine response) is performed.

SMILES | EC50 [nM]
Cc1cc2c(nc1N1CCC(Oc3ccc4c(c3)CCCN4)CC1)CNC2=O [Example 22, 3-methyl-2-(4-((1,2,3,4-tetrahydroquinolin-6-yl)oxy)piperidin-1-yl)-6,7-dihydro-5H-pyrrolo[3,4-b]pyridin-5-one] | 32
Cc1cc2c(nc1N1CC[C@@H](Oc3ccc4c(cnn4C)c3)[C@H](F)C1)CNC2=O [Example 25, 2-((3R,4R)-3-fluoro-4-((1-methyl-1H-indazol-5-yl)oxy)piperidin-1-yl)-3-methyl-6,7-dihydro-5H-pyrrolo[3,4-b]pyridin-5-one] | 75
Cc1cc2c(nc1N1CCC(Oc3cccc(C#N)c3)CC1)[C@@H](C)N(C)C2=O [Example 28A, (R)-3-((1-(3,6,7-trimethyl-5-oxo-6,7-dihydro-5H-pyrrolo[3,4-b]pyridin-2-yl)piperidin-4-yl)oxy)benzonitrile] | 84
COc1ccc(O[C@H]2CCN(c3nc4c(cc3C)C(=O)NC4)C[C@H]2C)cn1 [Example 29B, 2-((3R,4S)-4-((6-methoxypyridin-3-yl)oxy)-3-methylpiperidin-1-yl)-3-methyl-6,7-dihydro-5H-pyrrolo[3,4-b]pyridin-5-one] | 30000
Cc1cc2c(nc1N1CC[C@@H](Oc3ccc4c(cnn4C)c3)[C@@H](F)C1)CN(C)C2=O [Example 31, 2-((3S,4R)-3-fluoro-4-((1-methyl-1H-indazol-5-yl)oxy)piperidin-1-yl)-3,6-dimethyl-6,7-dihydro-5H-pyrrolo[3,4-b]pyridin-5-one] | 42
Cc1cc2c(nc1N1CCC(Oc3ccc4c(cnn4C)c3)CC1)CN(C)C2=O [Example 32, 3,6-dimethyl-2-(4-((l-methyl-1H-indazol-5-yl)oxy)piperidin-1-yl)-6,7-dihydro-5H-pyrrolo[3,4-b]pyridin-5-one] | 37

More lines, in order of falling EC50, values ahead:

EC50 [nM] | SMILES
1980 | Cc1cc2c(nc1N1CCC(Oc3cccc(C#N)c3)CC1)[C@H](C)N(C)C2=O [Example 28B, (S)-3-((1-(3,6,7-trimethyl-5-oxo-6,7-dihydro-5H-pyrrolo[3,4-b]pyridin-2-yl)piperidin-4-yl)oxy)benzonitrile]
167 | Cc1cc2c(nc1N1CC[C@H](Oc3ccc4c(cnn4C)c3)[C@@H](F)C1)CNC2=O [Example 24, 2-((3S,4S)-3-fluoro-4-((1-methyl-1H-indazol-5-yl)oxy)piperidin-1-yl)-3-methyl-6,7-dihydro-5H-pyrrolo[3,4-b]pyridin-5-one]
70 | Cc1cc2c(nc1N1CC[C@H](Oc3ccc4c(cnn4C)c3)[C@H](F)C1)CNC2=O [Example 23, 2-((3R,4S)-3-fluoro-4-((1-methyl-1H-indazol-5-yl)oxy)piperidin-1-yl)-3-methyl-6,7-dihydro-5H-pyrrolo[3,4-b]pyridin-5-one]
63 | COc1ccc(O[C@@H]2CCN(c3nc4c(cc3C)C(=O)NC4)C[C@@H]2C)cn1 [Example 29A, 2-((3S,4R)-4-((6-methoxypyridin-3-yl)oxy)-3-methylpiperidin-1-yl)-3-methyl-6,7-dihydro-5H-pyrrolo[3,4-b]pyridin-5-one]
43 | Cc1cc2c(nc1N1CCC(Oc3ccc4c(ccn4C)c3)CC1)CNC2=O [Example 27, 3-methyl-2-(4-((1-methyl-1H-indol-5-yl)oxy)piperidin-1-yl)-6,7-dihydro-5H-pyrrolo[3,4-b]pyridin-5-one]
28 | Cc1cc2c(nc1N1CCC(Oc3ccc4[nH]ccc4c3)CC1)CNC2=O [Example 26, 2-(4-((1H-indol-5-yl)oxy)piperidin-1-yl)-3-methyl-6,7-dihydro-5H-pyrrolo[3,4-b]pyridin-5-one]
25 | COc1ccc(O[C@@H]2CCN(c3nc4c(cc3C)C(=O)NC4)C[C@H]2F)cn1 [Example 30, 2-((3R,4R)-3-fluoro-4-((6-methoxypyridin-3-yl)oxy)piperidin-1-yl)-3-methyl-6,7-dihydro-5H-pyrrolo[3,4-b]pyridin-5-one]

Source: patent US10329289B2, “6,7-dihydro-5H-pyrrolo[3,4-B]pyridin-5-one allosteric modulators of the M4 muscarinic acetylcholine receptor” (Merck Sharp & Dohme Corp., priority 2015, dated 2019)
